# Assay results published in patent US20230131501A1, “THERAPEUTIC USES OF INHIBITORS OF THE RNA-BINDING PROTEIN HuR” (University of Kansas, priority 2020, published 2023).
# Entries after “also recorded” stand apart in the source; their conditions may differ.
# Tests used:
# [1] = tested on: PANC-1-Luc orthotopic pancreatic xenografts; test: Orthotopic pancreatic tumor model (PANC-1-Luc); format: in vivo, nude mice
# Description: All animal procedures were approved by the Institutional Animal Care and Use Committee at the University of Kansas Medical Center under the protocol #2015-2247. Dose of KH-3 was pre-determined by a pilot experiment to be 100 mg/kg body weight, intraperitoneal injection (IP), three times weekly. All treatment in this pancreatic cancer section of the present disclosure concerning KH-3 used this dose regimen.
# An orthotopic pancreatic tumor model was used to determine treatment effects of KH-3. Luciferase-expressing PANC-1 cells (PANC-1-Luc, multi-clones) were established by the Preclinical Proof of Concept Core Laboratory (University of Kansas Medical Center, Kansas City, Kans.). A small subcostal laparotomy was performed in female Ncr nu/nu mice to expose the pancreas, and 2×10^5 PANC-1-Luc cells in 50 μL PBS were injected into the tail of pancreas. […]
# The in vivo tumor inhibitory effects of KH-3 were tested in a highly metastatic orthotopic model of pancreatic cancer. […] Tumor progression is monitored by weekly imaging using an IVIS Spectrum imaging system (Caliper Life Sciences). […] After 2 weeks, tumor development in the pancreas of the recipient mice was detected by imaging. […] The dose regimen of KH-3 was determined by a pilot dose-finding experiment to be 100 mg/kg, intraperitoneal injection (IP), three times (3×) weekly, which was the highest dose without showing toxicity. […]
# [2] = tested on: 2LMP subclone of MDA-MB-231, lung metastasis; test: Experimental metastasis model (2LMP, lung metastasis); format: in vivo, mice
# Description: For the experimental metastasis model, Dr. Marc Lippman kindly gifted a 2LMP subclone that was generated from MDA-MB-231 and that formed lung metastasis in mice. 0.5×10^6 2LMP cells stably expressing luciferase in 0.3 mL DMEM were intravenously injected into tail veins of mice. Immediately following injection, mice were imaged by bioluminescence to assure wide distribution and quality of the initial injection. The mice were then randomized into two groups and treated with 50 mg/kg KH-3 or vehicle control via intraperitoneal injection five times per week for five weeks. Bioluminescence imaging was taken weekly to monitor the metastasis burden at lung. […] Imaging was then taken twice a week after first detectable signaling at lung. All animal experiments were carried out according to the protocol approved by the Institutional Animal Use and Care Committee at the University of Kansas.
# [3] = tested on: hTERT-HPNE (non-cancerous human pancreatic ductal epithelial cell line); test: MTT cell viability, non-cancerous cells; format: cell-based; conditions: 48 hours
# Description: Pancreatic cancer cell lines were obtained from the American Type Culture Collection (Manassas, Va.). hTERT-HPNE cells (immortalized human pancreatic ductal epithelial cells) were donated by Dr. Anant at the University of Kansas Medical Center. MTT assay was used for cell viability detection, with starting cell number in 96-well plate of 3000/well (for 72 h treatment) or 5000/well (for 48 h treatment).
# Pancreatic cancer cell lines with different endogenous HuR expression levels were treated with serial concentrations of KH-3 for 48 hours. KH-3 induced cytotoxicity in pancreatic cancer cells, with the sensitivity correlated to endogenous HuR protein levels (FIG. 30). MIA PaCa2 cells have the highest HuR protein abundance among the tested cell lines and were the most sensitive to HuR treatment (IC50=5 μM). […] BxPC-3 cells, another human pancreatic cancer cell line, have HuR expression level in the middle, and the IC50 of KH-3 was in the middle (10 μM). A non-cancerous human pancreatic ductal epithelial cell line (hTERT-HPNE) was tested under the same conditions. hTERT-HPEN cells have the lowest abundance of HuR protein compared to the cancer cells, and the cytotoxicity of KH-3 to these cells were minimal (IC50>>40 μM). There is an inverse correlation in the tested cell lines between the HuR expression levels and the sensitivity to KH-3 treatment (FIG. 30) (R=−0.71 by Pearson Tests).
# [4] = biological target: T1, HuR protein bound to Msi1-Bi (Homo sapiens, UniProt Q15717); test: Pull-down assay #1, RNA immunoprecipitation with biotinylated Msi1 ARE oligo; format: cell-based; conditions: cytoplasmic lysates of treated cells with HuR overexpression
# T1 construct: endogenous in cells
# Description: Cells with HuR overexpression were treated with compounds, then the cell cytoplasmic lysates were collected using NE-PER Nuclear and Cytoplasmic Extraction Kit (Thermo Scientific), and subsequently to the cell cytoplasmic lysates were added the biotinylated target ARE oligo from Msi1 mRNA (Msi1-Bi). Following this, streptavidin beads were added to pull down HuR protein bound to Msi1-Bi. Compounds of the present technology blocked the HuR pull-down by the biotinylated ARE oligo, illustrating inhibition of the Hur-mRNA interaction. Unlabeled target AREs were used as positive control. FIG. 6A provides results with KH-3, illustrating KH-3 blocked Msi1-Bi RNA mediated pull-down of HuR protein up to 24%.
# [5] = 50 mg/kg i.p. five times per week for five weeks
# T1 sequence (Q15717 2-326 limits assumed): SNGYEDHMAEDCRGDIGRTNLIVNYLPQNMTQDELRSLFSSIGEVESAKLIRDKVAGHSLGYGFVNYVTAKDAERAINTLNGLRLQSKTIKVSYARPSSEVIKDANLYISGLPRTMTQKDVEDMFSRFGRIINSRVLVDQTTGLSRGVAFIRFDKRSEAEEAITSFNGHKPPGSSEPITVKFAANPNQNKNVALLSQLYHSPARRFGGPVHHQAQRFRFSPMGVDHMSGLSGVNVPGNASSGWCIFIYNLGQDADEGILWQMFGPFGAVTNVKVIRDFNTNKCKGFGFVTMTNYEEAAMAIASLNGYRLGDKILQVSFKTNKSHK
smiles,measurement,setting,value
CC(C)(C)c1ccc(S(=O)(=O)Nc2ccc3sc(/C=C/C(=O)NO)cc3c2)cc1 [KH-3],mice that developed metastasis (liver),"[1]; 100 mg/kg IP 3× weekly, 5 weeks, 1/10",10%
same,highest dose without showing toxicity,"[1]; pilot dose-finding experiment, IP, three times weekly",100 mg/kg
same,median survival time,[2]; [5],81 days
same,median time to initiation of pulmonary metastases,[2]; [5],71 days
same,side effects,[2]; [5],minor diarrhea in some mice; also recorded: Some mice had swollen abdomens starting the fourth week of treatment
same,metastasis rate (mice with pulmonary metastases at the end of experiment),"[2]; 50 mg/kg i.p. five times per week for five weeks, 7/9",77.7%
same,weight gain,[2]; first 43 days of the experiment,gained weight similar to those in control group
same,IC50,[3],> 40 µM
same,blocking of Msi1-Bi RNA mediated pull-down of HuR protein,[4],up to 24%
